Tested on: 947758-054-R-J2-PDC spheroid growth, percent test/control
Assay: Anticancer human tumor 947758-054-R-J2-PDC patient-derived colon adenocarcinoma cell line growth inhibition [CLK]
Conditions: spheroids with HUVEC and MSC; for IC50: curve of first compound; for viability, T/C: stronger effect = lower value
Text: A high-throughput screen of multi-cell type tumor spheroids was designed to identify active combinations of […] and targeted small molecules. Complex spheroids include a stromal component modeled by human endothelial cells (HUVEC) and fibroblasts modeled by human mesenchymal stem cells (MSCs). The concentration ranges selected for each drug and investigational agent were based upon clinically achievable concentrations if the clinical Cmax of the agent was known.
Compounds. The drugs and investigational agents: cirtuvivint (SM08502; NSC835563), CC-671 (NSC850746), vemurafenib (NSC761431), tapotoclax (NSC804041), sotorasib (NSC818433), adagrasib (NSC831453), MRTX-1133 (NSC836407), BAY2416964 (NSC825713), copanlisib (NSC816437), inavolisib (NSC800729), abemaciclib (NSC768073), osimertinib (NSC779217), entinostat (NSC756642), eltanexor (KPT-8602, NSC794443), venetoclax (NSC766270), ceralasertib (NSC777638), bortezomib (NSC756655), olaparib (NSC753686), talazoparib (NSC767125), alisertib (NSC759677), peposertib (NSC802822), gemcitabine (NSC613327), 5-fluorouracil (NSC19893), SN-38 (NSC673596), oxaliplatin (NSC266046), paclitaxel (NSC125973), and doxorubicin (NSC123127), were obtained from the National Cancer Institute (NCI) Developmental Therapeutics Program Chemical Repository. The FDA-approved anticancer drug set is available from the Developmental Therapeutics Program at https://dtp.cancer.gov/organization/dscb/obtaining/available plates.htm. […] The stock solutions were prepared in dimethyl sulfoxide (DMSO, Sigma-Aldrich, St. Louis, MO, cat. D2650), except for the platinum complexes which were prepared in saline (Quality Biological, Gaithersburg, MD, cat. 114-055-101), at 800-fold the tested concentration and stored at -70 degrees C prior to their use. All drugs and investigational agents were tested over a range starting from a high concentration at or near the clinical Cmax and decreasing in half-log increments. If the clinical Cmax for an agent had not been determined, the highest concentration tested was 10 microM.
Cell Culture. All cells were maintained in an incubator at 37 degrees C and 5% CO2 with 95% humidity. The PDC lines were cultured according to standard operating procedures established by the NCI PDMR. Briefly, all PDCs were thawed and cultured in Matrigel-coated flasks prepared with a working solution of 1X Ham's F-12 nutrient mix, without supplementation (Invitrogen, Waltham, MA, cat. 11765054), 100 U/mL penicillin-streptomycin (Invitrogen, cat. 15140122), and 2.5% Matrigel (Corning Inc., Corning, NY, cat. 354248) for the first three passages. The 947758-054-R-J2-PDC line was cultured in 6B/Colon 1A media, which includes advanced DMEM/F-12 (Thermo Fisher Scientific, cat. 12634028), 10 mM HEPES (Thermo Fisher Scientific, cat. 15630080), 1X GlutaMAX supplement (Thermo Fisher Scientific, cat. 35050061), 0.1 mg/mL primocin (InvivoGen, cat. ant-pm-2), 10% defined fetal bovine serum, heat inactivated (HyClone Laboratories Inc., cat. SH30070.03HI), 1.25 mM N-Acetyl-L-cysteine (Sigma-Aldrich, cat. A9165), 10 mM nicotinamide (Sigma-Aldrich, cat. N0636), 1X B-27 supplement (Thermo Fisher Scientific, cat. 17504044), 1X N-2 supplement (Thermo Fisher Scientific, cat. 17502048), and 10 microM Y-27632 dihydrochloride (Tocris Bioscience, cat. 1254). The 876862-298-R-J1-PDC was cultured in 6E media, which includes all 6B/Colon 1A media components plus 50% L-WRN conditioned media (ATCC, cat. CRL-3276), 50 ng/mL recombinant human EGF recombinant protein (hEGF; Thermo Fisher Scientific, cat. PHG0311), 10 ng/mL recombinant human fibroblast growth factor 10 (hGFG-10; PeproTech, cat. 100-26), 1 ng/mL recombinant human fibroblast growth factor 2 (hFGF-2; PeproTech, cat. 100-18B), and 1 µM prostaglandin E2 (PGE2; Tocris, cat. 2296). The 227483-062-R1-J1-PDC line was cultured in Panc media, containing all 6E components except hFGF-2, with the addition of 500 nM SB-431542 (Selleckchem, cat. S1067) and 10 nM gastrin (Tocris, cat. 3006). […]

[1] = second compound 0.0316 µM, first compound 0.0316 µM
[2] = second compound 0.0316 µM, first compound 0.1 µM
[3] = second compound 0.0316 µM, first compound 0.316 µM
[4] = second compound 0.0316 µM, first compound 1 µM
[5] = second compound 0.0316 µM, first compound 3.16 µM
[6] = second compound 0.0316 µM, first compound 10 µM
[7] = second compound 0.1 µM, first compound 0.0316 µM
[8] = second compound 0.1 µM, first compound 0.1 µM
[9] = second compound 0.1 µM, first compound 0.316 µM
[10] = second compound 0.1 µM, first compound 1 µM
[11] = second compound 0.1 µM, first compound 3.16 µM
[12] = second compound 0.1 µM, first compound 10 µM
[13] = second compound 0.316 µM, first compound 0.0316 µM
[14] = second compound 0.316 µM, first compound 0.1 µM
[15] = second compound 0.316 µM, first compound 0.316 µM
[16] = second compound 0.316 µM, first compound 1 µM
[17] = second compound 0.316 µM, first compound 3.16 µM
[18] = second compound 0.316 µM, first compound 10 µM
[19] = second compound 1 µM, first compound 0.0316 µM
[20] = second compound 1 µM, first compound 0.1 µM
[21] = second compound 1 µM, first compound 0.316 µM
[22] = second compound 1 µM, first compound 1 µM
[23] = second compound 1 µM, first compound 3.16 µM
[24] = second compound 1 µM, first compound 10 µM
[25] = second compound 3.16 µM, first compound 0.0316 µM
[26] = second compound 3.16 µM, first compound 0.1 µM
[27] = second compound 3.16 µM, first compound 0.316 µM
[28] = second compound 3.16 µM, first compound 1 µM
[29] = second compound 3.16 µM, first compound 3.16 µM
[30] = second compound 3.16 µM, first compound 10 µM
[31] = second compound 10 µM, first compound 0.0316 µM
[32] = second compound 10 µM, first compound 0.1 µM
[33] = second compound 10 µM, first compound 0.316 µM
[34] = second compound 10 µM, first compound 1 µM
[35] = second compound 10 µM, first compound 3.16 µM
[36] = second compound 10 µM, first compound 10 µM
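Note: spheroids exposed to compounds for one week before readout.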
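Throughout, for viability, T/C: 100% = DMSO vehicle control wells.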

Structure (SMILES): CCCS(=O)(=O)Nc1ccc(F)c(C(=O)c2c[nH]c3ncc(-c4ccc(Cl)cc4)cc23)c1F + CN1CCN(c2cc(C(=O)Nc3cc4cc(-c5cnn(C)c5)ccc4cn3)ccn2)CC1
- IC50 (second compound 0.0316 µM): > 10000 nM
- IC50 (second compound 0.1 µM): 910 nM
- IC50 (second compound 0.316 µM): < 31.6 nM
- IC50 (second compound 1 µM): < 31.6 nM
- IC50 (second compound 3.16 µM): < 31.6 nM
- IC50 (second compound 10 µM): < 31.6 nM
- viability, T/C [1]: 99.5%
- viability, T/C [2]: 99.4%
- viability, T/C [3]: 79.7%
- viability, T/C [4]: 74.3%
- viability, T/C [5]: 79.6%
- viability, T/C [6]: 63.8%
- viability, T/C [7]: 128%
- viability, T/C [8]: 176%
- viability, T/C [9]: 101%
- viability, T/C [10]: 50.9%
- viability, T/C [11]: 50.8%
- viability, T/C [12]: 34.5%
- viability, T/C [13]: 3.8%
- viability, T/C [14]: 4.14%
- viability, T/C [15]: 4.9%
- viability, T/C [16]: 4.06%
- viability, T/C [17]: 4.73%
- viability, T/C [18]: 3.59%
- viability, T/C [19]: 0.85%
- viability, T/C [20]: 1%
- viability, T/C [21]: 0.17%
- viability, T/C [22]: 0.15%
- viability, T/C [23]: 1.2%
- viability, T/C [24]: 0.11%
- viability, T/C [25]: 0.94%
- viability, T/C [26]: 1.18%
- viability, T/C [27]: 1.32%
- viability, T/C [28]: 0.16%
- viability, T/C [29]: 0.84%
- viability, T/C [30]: 1.58%
- viability, T/C [31]: 1.3%
- viability, T/C [32]: 1.75%
- viability, T/C [33]: 0.41%
- viability, T/C [34]: 0.42%
- viability, T/C [35]: 1.25%
- viability, T/C [36]: 0.41%

Structure (SMILES): COC1C=CCC(C)C(C)S(=O)(=O)NC(=O)c2ccc3c(c2)N(CC2CCC21)CC1(CCCc2cc(Cl)ccc21)CO3 (centres undefined) + CN1CCN(c2cc(C(=O)Nc3cc4cc(-c5cnn(C)c5)ccc4cn3)ccn2)CC1
- IC50 (second compound 0.0316 µM): 8020 nM
- IC50 (second compound 0.1 µM): 8680 nM
- IC50 (second compound 0.316 µM): < 31.6 nM
- IC50 (second compound 1 µM): < 31.6 nM
- IC50 (second compound 3.16 µM): < 31.6 nM
- IC50 (second compound 10 µM): < 31.6 nM
- viability, T/C [1]: 111%
- viability, T/C [2]: 106%
- viability, T/C [3]: 111%
- viability, T/C [4]: 97%
- viability, T/C [5]: 101%
- viability, T/C [6]: 37.8%
- viability, T/C [7]: 137%
- viability, T/C [8]: 163%
- viability, T/C [9]: 179%
- viability, T/C [10]: 174%
- viability, T/C [11]: 151%
- viability, T/C [12]: 35.2%
- viability, T/C [13]: 4.59%
- viability, T/C [14]: 2.89%
- viability, T/C [15]: 2.74%
- viability, T/C [16]: 3.21%
- viability, T/C [17]: 3.47%
- viability, T/C [18]: 6.05%
- viability, T/C [19]: 1.87%
- viability, T/C [20]: 4.11%
- viability, T/C [21]: 0.16%
- viability, T/C [22]: 1.58%
- viability, T/C [23]: 1.7%
- viability, T/C [24]: 0.3%
- viability, T/C [25]: 0.35%
- viability, T/C [26]: 0.72%
- viability, T/C [27]: 0.26%
- viability, T/C [28]: 1.14%
- viability, T/C [29]: 0.26%
- viability, T/C [30]: 0.15%
- viability, T/C [31]: 1.19%
- viability, T/C [32]: 3.23%
- viability, T/C [33]: 2.27%
- viability, T/C [34]: 1.77%
- viability, T/C [35]: 0.61%
- viability, T/C [36]: 1.23%
